# pIC50: −log10 of the molar value.
# Key:
# [1] = test system: HCT116 MTAP null cells; assay: HCT116 MTAP null cell proliferation / viability (CellTiter-Glo, 6 days); assay type: cell-based; conditions: HCT116-MTAP null, 144 h, HCT116 MTAP null cells, 6 days, CellTiter-Glo; read-out: HCT-116 MTAP null IC50
# How it was run: (§1)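 CellTiter-Glo luminescence, 6-day exposure, RPMI 1640 + 10% FBS. Dosing: 1:3 series (8-9 pts, top 1 or 10 μM) or 1:2 series (22 pts, top 10 or 50 μM), DMSO control. IC50 = 50% of control via curve fit.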
# [2] = test system: HCT116 WT cells; assay: HCT116 WT cell proliferation / viability (CellTiter-Glo, 6 days); assay type: cell-based; conditions: Homo sapiens, HCT-116, 144 h, HCT116 WT cells, 6 days, CellTiter-Glo; read-out: HCT-116 WT IC50
# How it was run: as §1
SMILES,pIC50 [1],pIC50 [2]
"CC(C)CN(Cc1ccc(C(F)(F)F)cn1)C(=O)c1ccc2nc(N)c3sccc3c2c1 [Example 637, 4-amino-N-(2-methylpropyl)-N-((5-(trifluoromethyl)-2-pyridinyl)methyl)thieno[2,3-c]quinoline-8-carboxamide]",6.67,5.49
"COC[C@H](C1CC1)N(Cc1ccc(N2CCOCC2)nn1)C(=O)c1ccc2nc(N)c3c(c2c1)COC3 [Example 641, 4-amino-N-((1S)-1-cyclopropyl-2-methoxyethyl)-N-((6-(4-morpholinyl)-3-pyridazinyl)methyl)-1,3-dihydrofuro[3,4-c]quinoline-8-carboxamide]",7.80,6.62
"CCOc1ccc(CN(CC(C)C)C(=O)c2ccc3nc(N)c4c(c3c2)COC4)nn1 [Example 642, 4-amino-N-((6-ethoxy-3-pyridazinyl)methyl)-N-(2-methylpropyl)-1,3-dihydrofuro[3,4-c]quinoline-8-carboxamide]",7.39,5.88
"COC[C@@H](C)N(Cc1ccc(Br)nn1)C(=O)c1ccc2nc(N)c3sccc3c2c1 [Example 643, 4-amino-N-((6-bromo-3-pyridazinyl)methyl)-N-((2R)-1-methoxy-2-propanyl)thieno[2,3-c]quinoline-8-carboxamide]",6.75,5.79
"COCC(C)(C)N(Cc1ccc(Br)nn1)C(=O)c1ccc2nc(N)c3c(c2c1)COC3 [Example 644, 4-amino-N-((6-bromo-3-pyridazinyl)methyl)-N-(1-methoxy-2-methyl-2-propanyl)-1,3-dihydrofuro[3,4-c]quinoline-8-carboxamide]",5.55,< 5.00
"C[C@H](c1ncccn1)N(Cc1ccc(C(F)(F)F)cn1)C(=O)c1ccc2nc(N)c3c(c2c1)COC3 [Example 653, 4-amino-N-((1R)-1-(2-pyrimidinyl)ethyl)-N-((5-(trifluoromethyl)-2-pyridinyl)methyl)-1,3-dihydrofuro[3,4-c]quinoline-8-carboxamide]",8.10,7.14
"C[C@H](c1ncccn1)N(Cc1ccc(C(F)(F)F)cn1)C(=O)c1ccc2nc(N)c3c(c2c1)CCCC3 [Example 654, 6-amino-N-((1R)-1-(2-pyrimidinyl)ethyl)-N-((5-(trifluoromethyl)-2-pyridinyl)methyl)-7,8,9,10-tetrahydro-2-phenanthridinecarboxamide]",8.05,6.77
"C[C@H](c1ncccn1)N(Cc1ccc(C(F)(F)F)cn1)C(=O)c1cc2c3c(c(N)nc2cc1Cl)COC3 [Example 655, 4-amino-7-chloro-N-((1R)-1-(2-pyrimidinyl)ethyl)-N-((5-(trifluoromethyl)-2-pyridinyl)methyl)-1,3-dihydrofuro[3,4-c]quinoline-8-carboxamide]",7.80,6.53
"C[C@H](c1ncccn1)N(Cc1ccc(Br)cn1)C(=O)c1ccc2nc(N)c3c(c2c1)COC3 [Example 658, 4-amino-N-((5-bromo-2-pyridinyl)methyl)-N-((1R)-1-(2-pyrimidinyl)ethyl)-1,3-dihydrofuro[3,4-c]quinoline-8-carboxamide]",8.22,7.15
"Nc1nc2ccc(C(=O)N(Cc3ccc(C(F)(F)F)nn3)C3CC(F)(F)C3)cc2c2c1COC2 [Example 660, 4-amino-N-(3,3-difluorocyclobutyl)-N-((6-(trifluoromethyl)-3-pyridazinyl)methyl)-1,3-dihydrofuro[3,4-c]quinoline-8-carboxamide]",6.45,< 5.00
"Nc1nc2ccc(C(=O)N(Cc3ccc(C(F)(F)F)nn3)C3CC3)cc2c2c1COC2 [Example 661, 4-amino-N-cyclopropyl-N-((6-(trifluoromethyl)-3-pyridazinyl)methyl)-1,3-dihydrofuro[3,4-c]quinoline-8-carboxamide]",6.52,4.58
"C[C@H](c1ncn(C)n1)N(Cc1ccc(C(F)F)cn1)C(=O)c1ccc2nc(N)c3c(c2c1)COC3 [Example 662, 4-amino-N-((5-(difluoromethyl)-2-pyridinyl)methyl)-N-((1R)-1-(1-methyl-1H-1,2,4-triazol-3-yl)ethyl)-1,3-dihydrofuro[3,4-c]quinoline-8-carboxamide]",7.54,6.54
"Nc1nc2ccc(C(=O)N(Cc3ccc(OC(F)(F)F)cn3)CC3CC3)cc2c2c1COC2 [Example 663, 4-amino-N-(cyclopropylmethyl)-N-((5-(trifluoromethoxy)-2-pyridinyl)methyl)-1,3-dihydrofuro[3,4-c]quinoline-8-carboxamide]",7.46,5.99
"CC(C)CN(Cc1ccc(C(F)(F)F)nn1)C(=O)c1ccc2nc(N)c3c(c2c1)COC3 [Example 664, 4-amino-N-(2-methylpropyl)-N-((6-(trifluoromethyl)-3-pyridazinyl)methyl)-1,3-dihydrofuro[3,4-c]quinoline-8-carboxamide]",7.42,5.86
"C[C@@H](c1ncccn1)N(Cc1ccc(C#N)cn1)C(=O)c1ccc2nc(N)c3c(c2c1)COC3 [Example 666, 4-amino-N-((5-cyano-2-pyridinyl)methyl)-N-((1S)-1-(2-pyrimidinyl)ethyl)-1,3-dihydrofuro[3,4-c]quinoline-8-carboxamide]",6.16,< 5.00
"C[C@H](c1ncn(C)n1)N(Cc1ccc(C(F)F)cn1)C(=O)c1cc2c3c(c(N)nc2cn1)COC3 [Example 667, 4-amino-N-((5-(difluoromethyl)-2-pyridinyl)methyl)-N-((1R)-1-(1-methyl-1H-1,2,4-triazol-3-yl)ethyl)-1,3-dihydrofuro[3,4-c][1,7]naphthyridine-8-carboxamide]",6.03,5.15
"Nc1nc2cnc(C(=O)N(Cc3ccc(C(F)(F)F)nn3)C3CC(F)(F)C3)cc2c2c1COC2 [Example 668, 4-amino-N-(3,3-difluorocyclobutyl)-N-((6-(trifluoromethyl)-3-pyridazinyl)methyl)-1,3-dihydrofuro[3,4-c][1,7]naphthyridine-8-carboxamide]",6.52,< 5.00
"Nc1nc2ccc(C(=O)N(Cc3ccc(C(F)(F)F)nn3)C3CCC3)cc2c2c1COC2 [Example 669, 4-amino-N-cyclobutyl-N-((6-(trifluoromethyl)-3-pyridazinyl)methyl)-1,3-dihydrofuro[3,4-c]quinoline-8-carboxamide]",7.14,5.51
"CC(C)CN(Cc1ccc(C(F)(F)F)nn1)C(=O)c1cc2c3c(c(N)nc2cn1)COC3 [Example 670, 4-amino-N-(2-methylpropyl)-N-((6-(trifluoromethyl)-3-pyridazinyl)methyl)-1,3-dihydrofuro[3,4-c][1,7]naphthyridine-8-carboxamide]",6.77,5.10

# More lines, now with the values ahead:
pIC50 [1],pIC50 [2],SMILES
6.83,5.52,"Nc1nc2ccc(C(=O)N(Cc3ccc(C(F)(F)F)cn3)Cc3ncccn3)cc2c2ccsc12 [Example 636, 4-amino-N-(2-pyrimidinylmethyl)-N-((5-(trifluoromethyl)-2-pyridinyl)methyl)thieno[2,3-c]quinoline-8-carboxamide]"
7.66,6.42,"C[C@H](c1ncccn1)N(Cc1ccc(C(F)(F)F)cn1)C(=O)c1ccc2nc(N)c3ncncc3c2c1 [Example 638, 5-amino-N-((1R)-1-(2-pyrimidinyl)ethyl)-N-((5-(trifluoromethyl)-2-pyridinyl)methyl)pyrimido[4,5-c]quinoline-9-carboxamide]"
≤ 4.30,< 4.30,"COCC(C)(C)N(Cc1ccc(Br)nn1)C(=O)c1cc2c3c(c(N)nc2cn1)COC3 [Example 645, 4-amino-N-((6-bromo-3-pyridazinyl)methyl)-N-(1-methoxy-2-methyl-2-propanyl)-1,3-dihydrofuro[3,4-c][1,7]naphthyridine-8-carboxamide]"
7.30,5.86,"Nc1nc2cnc(C(=O)N(Cc3ccc(C(F)(F)F)cn3)CC3CC3)cc2c2c1COC2 [Example 652, 4-amino-N-(cyclopropylmethyl)-N-((5-(trifluoromethyl)pyridin-2-yl)methyl)-1,3-dihydrofuro[3,4-c][1,7]naphthyridine-8-carboxamide]"
7.72,5.90,"Nc1nc2cc(Cl)c(C(=O)N(Cc3ccc(C(F)(F)F)cn3)C3CC3)cc2c2c1COC2 [Example 656, 4-amino-7-chloro-N-cyclopropyl-N-((5-(trifluoromethyl)-2-pyridinyl)methyl)-1,3-dihydrofuro[3,4-c]quinoline-8-carboxamide]"
7.89,6.71,"C[C@H](c1ncccn1)N(Cc1ccc(Br)nn1)C(=O)c1ccc2nc(N)c3c(c2c1)COC3 [Example 657, 4-amino-N-((6-bromo-3-pyridazinyl)methyl)-N-((1R)-1-(2-pyrimidinyl)ethyl)-1,3-dihydrofuro[3,4-c]quinoline-8-carboxamide]"
7.85,6.42,"C[C@H](c1ncccn1)N(Cc1ccc(C#N)cn1)C(=O)c1ccc2nc(N)c3c(c2c1)COC3 [Example 659, 4-amino-N-((5-cyano-2-pyridinyl)methyl)-N-((1R)-1-(2-pyrimidinyl)ethyl)-1,3-dihydrofuro[3,4-c]quinoline-8-carboxamide]"
7.43,5.90,"CC(C)CN(Cc1ccc(Br)nn1)C(=O)c1ccc2nc(N)c3c(c2c1)COC3 [Example 665, 4-amino-N-((6-bromo-3-pyridazinyl)methyl)-N-(2-methylpropyl)-1,3-dihydrofuro[3,4-c]quinoline-8-carboxamide]"
7.10,5.40,"Nc1nc2cnc(C(=O)N(Cc3ccc(Br)nn3)CC3CC3)cc2c2c1COC2 [Example 671, 4-amino-N-((6-bromo-3-pyridazinyl)methyl)-N-(cyclopropylmethyl)-1,3-dihydrofuro[3,4-c][1,7]naphthyridine-8-carboxamide]"

# Reference: patent US20240101570A1 (AMGEN INC., priority 2020, published 2024)
